Measured values from patent US20030176436A1, “Novel heterocyclic compounds as selective bacterial DHFR inhibitors and their uses thereof” (priority 2001, published 2003).
Converted amounts (≈) assume the structure as drawn. Where two headings read alike, the source gives them in different places.

Experiments:
bacterial DHFR (bDHFR) = biological target: T1, bacterial DHFR (bDHFR) (Escherichia coli, UniProt P0ABQ4); assay: DHFR enzyme assay, Ki determination, bacterial DHFR; format: biochemical, E. coli
T1 construct: gift of Eric Brown, McMaster University
Method: Human and Bacterial DHFR: E. coli DHFR was kindly provided by Eric Brown of MacMaster University.
(§1) Dihydrofolic acid and NADPH were purchased from Sigma. Enzyme assays were adapted for microtitre format from a previously published procedure (2, 3). All assays were performed in a 250 μl volume in 96-well microtitre plates. Typical assays consisted of 20 nM DHFR (human or E. coli), 100 μM NADPH, and 50 μM dihydrofolic acid in 100 mM HEPES pH 8, 10 mM KCl, and 10 mM MgCl2. The assay was monitored spectrophotometrically for the conversion of NADPH to NADP+, which results in a decrease in absorbance at 340 nm.
(§2) The reaction was initiated by the addition of 125 μl of 100 μM dihydrofolic acid. The final concentrations in the assay were 20 nM DHFR, 100 μM NADPH, 50 μM dihydrofolic acid, and a range of 500 μM to 20 nM inhibitor compound. The final DMSO concentration was 2% of the total volume. Reactions were monitored as described above.

S. aureus = assay: Microdilution antimicrobial susceptibility test (MIC); format: cell-based; details: Staphylococcus aureus; MIC, average; read-out: S. aureus (μg/ml) avg
Method: Stock solutions of tested compounds were prepared in N,N-dimethylformamide (DMF) at a concentration of 5 mg/mL. Working solutions of the tested compounds were then prepared from the stock solutions, in Mueller-Hinton broth (MHB) with a starting concentration of 64 μg/mL.
Bacterial inocula were prepared from overnight culture (i.e., one fresh colony from agar plate in 5 ml MHB; H. influenzae was grown in MHB with the addition of yeast extract, haematin, and NAD), centrifuged 2×5 min/3000 rpm (for S. pneumoniae and H. influenzae, 2×10 min/3000 rpm), and dispensed in 5 ml of fresh MHB each time, such that the bacterial suspension is diluted to obtain 100 colony forming units (cfu) in a microplate well (100 μl total volume).
Microplate wells were filled with two-fold dilutions of test compound (50 μl), starting with 64 μg/ml. Wells were then filled with 50 μl of bacterial inoculum (final volume: 100 μl/well). The plates were incubated at 37° C. for 18-24 hours (S. pneumoniae was grown in a CO2-enriched atmosphere).

human DHFR (hDHFR) = biological target: T2, human DHFR (hDHFR) (Homo sapiens, UniProt P00374); assay: DHFR enzyme assay, Ki determination, human DHFR; format: biochemical; details: Table 3
T2 construct: result in the amplification of a 186 amino acid hDHFR coding region; made in house; host or cells: E. coli Top10
T2 sequence (P00374 1-187): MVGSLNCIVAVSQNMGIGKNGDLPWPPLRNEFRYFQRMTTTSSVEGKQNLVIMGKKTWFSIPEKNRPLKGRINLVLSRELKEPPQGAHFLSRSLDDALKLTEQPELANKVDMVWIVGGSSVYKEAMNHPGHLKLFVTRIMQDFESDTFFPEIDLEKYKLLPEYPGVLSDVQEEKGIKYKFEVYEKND
Method: The human DHFR cDNA was cloned by PCR from the Human Universal Quick-clone™ cDNA purchased from Clontech.
The PCR fragment was digested with restriction enzymes NdeI and HindIII, and then ligated into a derivative of the pKK223-3 expression vector (Amersham Pharmacia). The final expression vector (pFW96.2) was transformed into E. coli Top10 F40 and hDHFR protein was induced by the addition of 1 mM IPTG followed by incubation at 37° C. for 4 hrs. Recombinant human DHFR was purified based on a previously published procedure (2).
as §1
as §2, with “Five microliters of inhibitor compound in DMSO was added to 120 μl of enzyme solution (40 nM DHFR and 200 μM NADPH). The reaction” for “The reaction”
V=(Vmax[S])/(Km(1+I/Ki)+[S]), where S=dihydrofolate, Km=Michaelis constant for dihydrofolate, I=inhibitor concentration.

[1] = average, read-out: bDHFR Ki/(μM) avg
[2] = second part of table, read-out: bDHFR

| Structure (SMILES) | Ki (bacterial DHFR (bDHFR); [1]) [µM] | MIC (S. aureus) [µg/mL] | Ki (bacterial DHFR (bDHFR); [2]) [µM] | Ki (bacterial DHFR (bDHFR); Table 3, read-out: bDHFR Ki) [µM] | Ki (human DHFR (hDHFR)) [nM] | Ki (bacterial DHFR (bDHFR); bDHFR Ki/(μM) avg, average) [µM] |
| --- | --- | --- | --- | --- | --- | --- |
| Cc1ccc([C@@H](C)N(CC2CC2)c2ncc3c(N)nc(N)nc3n2)c2ccccc12 [Compound 54] | 0.01 | 2 (≈ 5.01 µM) |  |  |  |  |
| CCc1ccc2ccccc2c1C(C)N(C)c1ncc2c(N)nc(N)nc2n1 (stereo not shown) [Compound 56] | 0.093 | 2 (≈ 5.36 µM) |  |  |  |  |
| CCN(c1ncc2c(N)nc(N)nc2n1)[C@H](C)c1csc2ccccc12 [Compound 36] | 0.005 | < 0.125 | 0.005 |  |  |  |
| C=CCN(Cc1cnc2nc(N)nc(N)c2n1)c1ccccc1 [Compound 46] | 0.093 | 2 (≈ 6.51 µM) |  |  |  |  |
| C[C@H](c1csc2ccccc12)N(CC1CC1)c1ncc2c(N)nc(N)nc2n1 [Compound 59] | 0.005 | 2 (≈ 5.11 µM) |  |  |  |  |
| C[C@@H](c1ccc(F)c2ccccc12)N(C)c1ncc2c(N)nc(N)nc2n1 [Compound 38] | 0.06 | 0.5 (≈ 1.38 µM) |  |  |  |  |
| CCCC(c1cccc2ccccc12)N(C)c1ncc2c(N)nc(N)nc2n1 (stereo not shown) [Compound 43] | 0.004 | < 0.125 |  |  |  |  |
| CC(c1c2c(cc3ccccc13)CCCC2)N(CC1CC1)c1ncc2c(N)nc(N)nc2n1 (stereo not shown) [Compound 31] | 0.024 | 1 (≈ 2.27 µM) |  |  |  |  |
| Nc1nc(N)c2nc(CNc3cccc(OCc4ccccc4)c3)cnc2n1 [Compound 20] | 0.062 | 0.5 (≈ 1.34 µM) |  |  |  |  |
| CC(c1ccc2c3c(cccc13)CC2)N(C)c1ncc2c(N)nc(N)nc2n1 (stereo not shown) [Compound 28] | 0.02 | < 0.125 |  |  |  |  |
| CC(c1ccc(Cl)c2ccccc12)N(CC1CC1)c1ncc2c(N)nc(N)nc2n1 (stereo not shown) [Compound 55] | 0.019 | 2 (≈ 4.76 µM) |  |  |  |  |
| CC(c1cccc2ccccc12)N(CCCCO)c1ncc2c(N)nc(N)nc2n1 (stereo not shown) [Compound 58] | 0.015 | 2 (≈ 4.96 µM) |  |  |  |  |
| CCN(c1ncc2c(N)nc(N)nc2n1)[C@H](C)c1ccc(C)c2ccccc12 [Compound 32] | 0.011 | 0.5 (≈ 1.34 µM) |  |  |  |  |
| CN(Cc1cnc2nc(N)nc(N)c2n1)c1cccc([N+](=O)[O-])c1 [Compound 21] | 0.082 | < 0.125 | 0.082 |  |  |  |
| CCc1ccc2ccc(C(C)N(CC3CC3)c3ncc4c(N)nc(N)nc4n3)cc2c1 (stereo not shown) [Compound 53] | 0.03 | 2 (≈ 4.84 µM) |  |  |  |  |
| CC(c1cccc2ccccc12)N(CCC(C)(C)C)c1ncc2c(N)nc(N)nc2n1 (stereo not shown) [Compound 60] | 0.029 | 2 (≈ 4.81 µM) |  |  |  |  |
| C=CCN(c1ncc2c(N)nc(N)nc2n1)C(C)c1cccc2ccccc12 (stereo not shown) [Compound 34] | 0.014 | 1 (≈ 2.69 µM) |  |  |  |  |
| CN(Cc1cnc2nc(N)nc(N)c2n1)c1ccc(C(=O)NCCCCN)cc1 [Compound 2] |  |  |  | 0.1 to 0.499 | 1000 to 5000 |  |
| Cc1ccc(C(C)N(CC2CC2)c2ncc3c(N)nc(N)nc3n2)c2ccccc12 (stereo not shown) [Compound 52] | 0.022 | 2 (≈ 5.01 µM) |  |  |  |  |
| CC(c1cccc2ccccc12)N(CCc1ccc(Cl)cc1)c1ncc2c(N)nc(N)nc2n1 (stereo not shown) [Compound 57] | 0.011 | 2 (≈ 4.26 µM) |  |  |  |  |
| Cc1ccc(C(F)(F)F)cc1NCc1cnc2nc(N)nc(N)c2n1 [Compound 64] |  |  | 0.385 |  |  |  |
| CCC(c1cccc2ccccc12)N(C)c1ncc2c(N)nc(N)nc2n1 (stereo not shown) [Compound 33] |  | 0.015 (≈ 0.0417 µM) | 0.012 |  |  | 0.012 |
| CC(c1cc(Cl)cc2ccccc12)N(C)c1ncc2c(N)nc(N)nc2n1 (stereo not shown) [Compound 35] | 0.037 | 0.5 (≈ 1.32 µM) |  |  |  |  |

| Structure (SMILES) | Ki (bacterial DHFR (bDHFR); [1]) [µM] | MIC (S. aureus) [µg/mL] | Ki (bacterial DHFR (bDHFR); [2]) [µM] | Ki (bacterial DHFR (bDHFR); Table 3, read-out: bDHFR Ki) [µM] | Ki (human DHFR (hDHFR)) [nM] | Ki (bacterial DHFR (bDHFR); bDHFR Ki/(μM) avg, average) [µM] |
| --- | --- | --- | --- | --- | --- | --- |
| CCCOCCN(c1ncc2c(N)nc(N)nc2n1)C(C)c1cccc2ccccc12 (stereo not shown) [Compound 49] | 0.02 | 2 (≈ 4.79 µM) |  |  |  |  |
| CC(c1cccc2ccccc12)N(C)c1ncc2c(N)nc(N)nc2n1 (stereo not shown) [Compound 24] | 0.015 | 0.25 (≈ 0.724 µM) |  |  |  |  |
| Nc1nc(N)c2nc(CNc3ccc(Cl)c4ccccc34)cnc2n1 [Compound 63] |  |  | 0.104 |  |  |  |
| CC(c1ccc(F)c2ccccc12)N(C)c1ncc2c(N)nc(N)nc2n1 (stereo not shown) [Compound 23] | 0.027 | 1 (≈ 2.75 µM) |  |  |  |  |
| Nc1nc(N)c2cnc(NCc3ccc(Oc4ccc(F)cc4)cc3)nc2n1 [Compound 66] |  |  |  | < 1 | > 500000 |  |
| CC(c1c2c(cc3ccccc13)CCCC2)N(C)c1ncc2c(N)nc(N)nc2n1 (stereo not shown) [Compound 27] | 0.008 | 0.5 (≈ 1.25 µM) |  |  |  |  |
| CCN(c1ncc2c(N)nc(N)nc2n1)C(C)c1ccc(C)c2ccccc12 (stereo not shown) [Compound 50] | 0.004 | 2 (≈ 5.36 µM) |  |  |  |  |
| CCCN(Cc1cnc2nc(N)nc(N)c2n1)c1ccccc1 [Compound 61] | 0.013 | 2 (≈ 6.46 µM) |  |  |  |  |
| CCC(c1ccc(F)c2ccccc12)N(C)c1ncc2c(N)nc(N)nc2n1 (stereo not shown) [Compound 40] | 0.004 | < 0.125 |  |  |  |  |
| C[C@H](c1cccc2ccccc12)N(C)c1ncc2c(N)nc(N)nc2n1 [Compound 22] | 0.002 | < 0.125 |  | < 0.002 | > 75000 |  |
| CC(c1cccc2ccccc12)N(CCc1ccccc1)c1ncc2c(N)nc(N)nc2n1 (stereo not shown) [Compound 26] | 0.02 | 1 (≈ 2.3 µM) |  |  |  |  |
| CCN(c1ncc2c(N)nc(N)nc2n1)[C@H](C)c1ccc(F)c2ccccc12 [Compound 37] | 0.003 | < 0.125 |  |  |  |  |
| CC(c1ccnc2ccccc12)N(C)c1ncc2c(N)nc(N)nc2n1 (stereo not shown) [Compound 39] | 0.015 | 0.25 (≈ 0.722 µM) |  |  |  |  |
| CC[C@H](c1cccc2ccccc12)N(C)c1ncc2c(N)nc(N)nc2n1 [Compound 42] | 0.004 | < 0.125 |  |  |  |  |
| Nc1nc(N)c2nc(COc3cc([N+](=O)[O-])ccc3N)cnc2n1 [Compound 13] |  |  |  | 0.5 to 0.999 | > 5000 |  |
| CC(c1ccc(OCc2c(F)cccc2Cl)cc1)N(C)c1ncc2c(N)nc(N)nc2n1 (stereo not shown) [Compound 48] | 0.007 | 2 (≈ 4.41 µM) |  |  |  |  |
| CCN(c1ncc2c(N)nc(N)nc2n1)C(C)c1cccc2ccccc12 (stereo not shown) [Compound 45] | 0.008 | 2 (≈ 5.56 µM) |  |  |  |  |
| CC(c1ccc(Cl)c2ccccc12)N(C)c1ncc2c(N)nc(N)nc2n1 (stereo not shown) [Compound 30] | 0.028 | < 0.125 | 0.024 |  |  |  |
| CCOc1ccc2ccccc2c1CN(C)c1ncc2c(N)nc(N)nc2n1 [Compound 29] | 0.02 | < 0.125 | < 0.02 |  |  |  |
| CCC(c1ccc(Cl)c2ccccc12)N(C)c1ncc2c(N)nc(N)nc2n1 (stereo not shown) [Compound 44] | 0.004 | < 0.125 |  |  |  |  |
| Cc1[nH]ncc1CCCN(c1ncc2c(N)nc(N)nc2n1)C(C)c1cccc2ccccc12 (stereo not shown) [Compound 51] | 0.022 | 2 (≈ 4.41 µM) |  |  |  |  |
| CCC(c1cccc2ccccc12)N(C)c1ncc2c(N)nc(N)nc2n1 (single isomer, unassigned) [Compound 41] | 0.037 | < 0.125 |  |  |  |  |
| CC(c1cccc2ccccc12)N(CCc1cccc(F)c1)c1ncc2c(N)nc(N)nc2n1 (stereo not shown) [Compound 47] | 0.023 | 2 (≈ 4.41 µM) |  |  |  |  |
